These are literature values, as cited in PubChem BioAssay AID1259409 (Chemical Carcinogenesis Research Information System (CCRIS), 2018).

In this data set the test system is rodent chemically induced tumor inhibition, incidence and multiplicity. Description: CCRIS tumor inhibitor studies. The note with it: for tumour outcome (control, treated, inhibition, significance): Carcinogen: 7,12-DIMETHYLBENZ[A]ANTHRACENE, 57-97-6.

“And” between values parts separate entries of the source, which are not always exact repeats. Identical values can stand only once.

On to `COc1ccc2c(c1)c(CC(=O)O)c(C)n2C(=O)c1ccc(Cl)cc1`, for which the outcome (Carcinogen: 4-HYDROXYBUTYL(BUTYL)NITROSAMINE [3817-11-6], Dose [Inhibitor]: 20 MG/KG IN DIET 1 WK BEFORE CARCINOGEN (STUDY DURATION: 32 WK), Route [Inhibitor]: DIET, Species: MOUSE, Strain/Sex: B6D2F1/MALE, Target Tissue: Type of Lesion: BLADDER: CARCINOMA, Dose [Carcinogen]: 7.5 MG/WK FOR 12 WK) is 32, 3, 91%; the outcome (Carcinogen: 4-HYDROXYBUTYL(BUTYL)NITROSAMINE [3817-11-6], Dose [Inhibitor]: 20 MG/KG IN DIET 20 WK AFTER LAST CARCINOGEN DOSE (STUDY DURATION: 61 WK), Route [Inhibitor]: DIET, Species: MOUSE, Strain/Sex: B6D2F1/MALE, Target Tissue: Type of Lesion: BLADDER: CARCINOMA, Dose [Carcinogen]: 7.5 MG/WK FOR 12 WK) was 66, 42, 36%; the outcome (Carcinogen: 4-HYDROXYBUTYL(BUTYL)NITROSAMINE [3817-11-6], Dose [Inhibitor]: 20 MG/KG IN DIET FOR 30 WK AT 1 WK AFTER LAST CARCINOGEN TREATMENT (STUDY DURATION: 42 WK), Route [Inhibitor]: DIET, Species: MOUSE, Strain/Sex: B6D2F1/MALE, Target Tissue: Type of Lesion: BLADDER: CARCINOMA, Dose [Carcinogen]: 7.5 MG/WK FOR 12 WK) is listed as 31, 7, 77%; the outcome (Carcinogen: ACETOXYMETHYL(METHYLNITROSAMINE), 56856-83-8, Dose [Inhibitor]: 0, 0.001% IN DRINKING WATER FOR 10 WK ADMINISTERED CONCURRENTLY WITH CARCINOGEN TREATMENT (STUDY DURATION: 31 WK), Route [Inhibitor]: ORAL, Species: RAT, Strain/Sex: SPRAGUE-DAWLEY/MALE, Target Tissue: Type of Lesion: LARGE BOWEL: TUMORS, Dose [Carcinogen]: 2 MG/KG BW 1/WK FOR 10 WK, Promoter: NONE USED) is on record as 28/29 (97%), 30/30 (100%), -3%, not significant at 21 wk; 20/20 (100%), 17/17 (1; the outcome (Carcinogen: ACETOXYMETHYL(METHYLNITROSAMINE), 56856-83-8, Dose [Inhibitor]: 0, 0.001% IN DRINKING WATER FOR 10 WK BEGINNING POST CARCINOGEN TREATMENT (STUDY DURATION: 31 WK), Route [Inhibitor]: ORAL, Species: RAT, Strain/Sex: SPRAGUE-DAWLEY/MALE, Target Tissue: Type of Lesion: LARGE BOWEL: TUMORS, Dose [Carcinogen]: 2 MG/KG BW 1/WK FOR 10 WK, Promoter: NONE USED) is on record as 28/29 (97%), 29/29 (100%), -3%, not significant at 21 wk; 20/20 (100%), 18/18 (1; the outcome (Carcinogen: ACETOXYMETHYL(METHYLNITROSAMINE), 56856-83-8, Dose [Inhibitor]: 0, 0.001% IN DRINKING WATER FOR 20 WK ADMINISTERED CONCURRENTLY WITH CARCINOGEN TREATMENT AND CONTINUED FOR 10 WK POST C, Route [Inhibitor]: ORAL, Species: RAT, Strain/Sex: SPRAGUE-DAWLEY/MALE, Target Tissue: Type of Lesion: LARGE BOWEL: TUMORS, Dose [Carcinogen]: 2 MG/KG BW 1/WK FOR 10 WK, Promoter: NONE USED) was 28/29 (97%), 27/30 (90%), 7%, not significant at 21 wk; 20/20 (100%), 20/20 (100. Besides, the “tumour outcome (control, treated, inhibition, significance)” value is 56%, 62%, -11%, not calculated (Dose [Inhibitor]: 0, 0.004% IN 20% FAT DIET CONTAINING 0.5% LINOLEIC ACID BEGINNING 7 D POST CARCINOGEN DOSE AND CONTINUING FOR DURATION O, Route [Inhibitor]: ORAL, Species: RAT, Strain/Sex: SPRAGUE-DAWLEY/FEMALE, Target Tissue: Type of Lesion: MAMMARY GLAND: ADENOCARCINOMA, Dose [Carcinogen]: 5 MG AT 50-53 DAYS OF AGE, Promoter: NONE USED); 53%, 39%, 26%, not calculated (Dose [Inhibitor]: 0, 0.004% IN 20% FAT DIET CONTAINING 4% LINOLEIC ACID BEGINNING 7 D POST CARCINOGEN DOSE AND CONTINUING FOR DURATION OF, Route [Inhibitor]: ORAL, Species: RAT, Strain/Sex: SPRAGUE-DAWLEY/FEMALE, Target Tissue: Type of Lesion: MAMMARY GLAND: ADENOCARCINOMA, Dose [Carcinogen]: 5 MG AT 50-53 DAYS OF AGE, Promoter: NONE USED); 69%, 50%, 28%, not calculated (Dose [Inhibitor]: 0, 0.004% IN 20% FAT DIET CONTAINING 12% LINOLEIC ACID BEGINNING 7 D POST CARCINOGEN DOSE AND CONTINUING FOR DURATION OF, Route [Inhibitor]: ORAL, Species: RAT, Strain/Sex: SPRAGUE-DAWLEY/FEMALE, Target Tissue: Type of Lesion: MAMMARY GLAND: ADENOCARCINOMA, Dose [Carcinogen]: 5 MG AT 50-53 DAYS OF AGE, Promoter: NONE USED); 26/32 (81%), 10/33 (30%), 63%, not calculated (Dose [Inhibitor]: 0, 0.005% IN HIGH-FAT (20% CORN OIL) DIET BEGINNING 7 D POST CARCINOGEN DOSE (STUDY DURATION: 20 WK), Route [Inhibitor]: ORAL, Species: RAT, Strain/Sex: SPRAGUE-DAWLEY/FEMALE, Target Tissue: Type of Lesion: MAMMARY GLAND: ADENOCARCINOMA, Dose [Carcinogen]: 5 MG ONCE, Promoter: NONE USED); 93%, 47%, 49%, p<0.01 (Dose [Inhibitor]: 0, 0.005% IN HIGH-FAT DIET BEGINNING 7 D POST CARCINOGEN TREATMENT (STUDY DURATION: 48 WK), Route [Inhibitor]: ORAL, Species: RAT, Strain/Sex: SPRAGUE-DAWLEY/FEMALE, Target Tissue: Type of Lesion: MAMMARY GLAND: ADENOCARCINOMA, Dose [Carcinogen]: 5 MG ONCE AT 50 D OF AGE, Promoter: NONE USED); 9/33 (27%), 11/32 (34%), -26%, not calculated (Dose [Inhibitor]: 0, 0.005% IN LOW-FAT (0.5% CORN OIL) DIET BEGINNING 7 D POST CARCINOGEN DOSE (STUDY DURATION: 20 WK), Route [Inhibitor]: ORAL, Species: RAT, Strain/Sex: SPRAGUE-DAWLEY/FEMALE, Target Tissue: Type of Lesion: MAMMARY GLAND: ADENOCARCINOMA, Dose [Carcinogen]: 5 MG ONCE, Promoter: NONE USED). The “tumour outcome (control, treated, inhibition, significance)” value by setting is: (Dose [Inhibitor]: 0, 0.005% IN LOW-FAT DIET BEGINNING 7 D POST CARCINOGEN TREATMENT (STUDY DURATION: 48 WK), Route [Inhibitor]: ORAL, Species: RAT, Strain/Sex: SPRAGUE-DAWLEY/FEMALE, Target Tissue: Type of Lesion: MAMMARY GLAND: ADENOCARCINOMA, Dose [Carcinogen]: 5 MG ONCE AT 50 D OF AGE, Promoter: NONE USED) 40%, 33%, 18%, not significant; (Dose [Inhibitor]: 0, 0.1 UMOL 2/WK FOR 18 WK APPLIED 10-15 MIN PRIOR TO EACH PROMOTER DOSE (STUDY DURATION: 20 WK), Route [Inhibitor]: DERMAL, Species: MOUSE, Strain/Sex: CD-1/FEMALE, Target Tissue: Type of Lesion: SKIN: TUMOR, Dose [Carcinogen]: 200 NMOL ONCE, Promoter: 12-O-TETRADECANOYL-13-ACETATE, 16561-29-8) 95%, 80%, 16%, not significant; (Dose [Inhibitor]: 0, 0.3 UMOL 2/WK FOR 18 WK APPLIED 10-15 MIN PRIOR TO EACH PROMOTER DOSE (STUDY DURATION: 20 WK), Route [Inhibitor]: DERMAL, Species: MOUSE, Strain/Sex: CD-1/FEMALE, Target Tissue: Type of Lesion: SKIN: TUMOR, Dose [Carcinogen]: 200 NMOL ONCE, Promoter: 12-O-TETRADECANOYL-13-ACETATE, 16561-29-8) 100%, 95%, 5%, not significant; (Dose [Inhibitor]: 0, 20 UG/ML IN DRINKING WATER 24 HR/D 3 D/WK FOR 26 WK BEGINNING AT 45 D OF AGE (STUDY DURATION: 26 WK), Route [Inhibitor]: ORAL, Species: RAT, Strain/Sex: SD/FEMALE, Target Tissue: Type of Lesion: MAMMARY GLAND: TUMOR, Dose [Carcinogen]: 10 UG/ANIMAL IN CORN OIL INTRAGASTRICALLY ON 45, 50, 55 D OF AGE) 100%, 37%, 63%, p<0.001; (Dose [Inhibitor]: 0.004% DIET FOR 22 WK STARTING 3 D AFTER CARCINOGEN ADMINISTRATION (STUDY DURATION: 22 WK), Route [Inhibitor]: ORAL, Species: RAT, Strain/Sex: SPRAGUE-DAWLEY/FEMALE, Target Tissue: Type of Lesion: MAMMARY GLANDS: ADENOCARCINOMA, Dose [Carcinogen]: 5 MG ONCE, Promoter: NONE USED) 44%, 41%, 7%, not significant and 59%, 38%, 36%, not significant; (Dose [Inhibitor]: 28 NMOL IN 0.2 ML ACETONE APPLIED 2/WK FOR 16 WK 5 HR BEFORE EACH PROMOTER APPLICATION BEGINNING 2 WK POST CARCINOGEN TR, Route [Inhibitor]: DERMAL, Species: MOUSE, Strain/Sex: CD-1/FEMALE, Target Tissue: Type of Lesion: SKIN: PAPILLOMA, Dose [Carcinogen]: 0.2 UMOL IN 0.2 ML ACETONE ONCE, Promoter: 12-O-TETRADECANOYLPHORBOL-13-ACETATE, 16561-29-8) 100%, 97%, 3%, not significant. The “tumour outcome (control, treated, inhibition, significance)” value is 100%, 88%, 12%, not significant (Dose [Inhibitor]: 280 NMOL IN 0.2 ML ACETONE APPLIED 2/WK FOR 16 WK 5 HR BEFORE EACH PROMOTER APPLICATION BEGINNING 2 WK POST CARCINOGEN D, Route [Inhibitor]: DERMAL, Species: MOUSE, Strain/Sex: CD-1/FEMALE, Target Tissue: Type of Lesion: SKIN: PAPILLOMA, Dose [Carcinogen]: 0.2 UMOL IN 0.2 ML ACETONE ONCE, Promoter: 12-O-TETRADECANOYLPHORBOL-13-ACETATE, 16561-29-8) and 90%, 84%, 7%, not significant (Dose [Inhibitor]: 280 NMOL IN 0.2 ML ACETONE APPLIED 2/WK FOR 20 WK 2 HR BEFORE EACH PROMOTER APPLICATION BEGINNING 2 WK POST CARCINOGEN D, Route [Inhibitor]: DERMAL, Species: MOUSE, Strain/Sex: CD-1/FEMALE, Target Tissue: Type of Lesion: SKIN: PAPILLOMA, Dose [Carcinogen]: 0.2 UMOL IN 0.2 ML ACETONE ONCE, Promoter: 12-O-TETRADECANOYLPHORBOL-13-ACETATE, 16561-29-8).
